Data taken from patent US20050020993A1, “Administration of therapeutic or diagnostic agents using interlabial pad” (priority 2001, published 2005).

Experiment: circulating plasma concentration of estradiol from an ILP system in HRT
Format: in vivo
Conditions: ILP (interlabial pad) system releasing 100 mg/day of estradiol as its 3-acetate ester; hormone replacement therapy
Excerpt: In one embodiment, a kit is provided for administering the medication from the drug delivery device. The kit includes an interlabial pad, and a package such as a plastic vial or a plastic or foil container, for packaging the interlabial pad. The kit can also include directions for the use of the pad. The pad can contain a unit dose of the medication, for example an anti-infective, such as gynelotrimin. Another example is the delivery of estradiol to treat vaginal atrophy or for hormone replacement therapy (HRT). In HRT, and ILP system releasing […] of estradiol as its 3-acetate ester maintains a circulating plasma concentration of 300 pmol/L of the drug, which is within the clinically desirable range for HRT.

Question: With `C[C@]12CC[C@@H]3c4ccc(O)cc4CC[C@H]3[C@@H]1CC[C@@H]2O` [estradiol] as the compound, how does the circulating plasma concentration read?
Answer: 300 pmol/L
